Several values for one entry are separate records, joined by “and”; a condition that tells them apart may be missing. Equal entries are not always repeated.
Columns and labels:
[1] = system: 3′-CGGACAAGAAG-5′ (complementary DNA strand); assay: Thermo-denaturation (UV-melting, 260 nm) of non-self-complementary DNA duplex; assay type: physicochemical; conditions: for average Tm (melting temperature) of the duplex: duplex 5′-C(2′-TeX-dU)TCTTGTCCG-3′ & 3′-CGGACAAGAAG-5′, four measurements, 50 mM NaCl, 10 mM phosphate pH 6.5, 0.1 mM EDTA, 10 mM MgCl2, 0.5° C./min
Procedure: (§1) Solution of the duplex DNA (2 uM) was prepared by dissolving the DNAs in a buffer containing 50 mM NaCl, 10 mM NaH2PO4—Na2HPO4 (pH 6.5), 0.1 mM EDTA and 10 mM MgCl2. The solution was heated to 70° C. for 2 min and cooled slowly to room temperature, followed by storing at 4° C. for overnight before measurement. The Tm curves were acquired at 260 nm by heating the samples from 5 to 70° C. at a rate of 0.5° C./min using Cary 300 UV-Visible Spectrophotometer with a temperature controller. […] The samples (1 mM duplex) were heated from 6 to 75° C. with a rate of 0.5° C./min. The red, blue and green curves represent the native, 2′-TeMe and 2′-TePh duplex, respectively, and are labelled in FIG. 6. The average Tm (four measurements) for each duplex is: 44.0±0.1° C. (native), 40.7±0.1° C. (2′-TeMe) and 36.8±0.2° C. (2′-TePh). […] The samples (1 mM duplex) were heated from 6 to 70° C. with a rate of 0.5° C./min. The circle (red), diamond (blue) and hexagon (purple) curves represent the native, 2′-TeMe and 2′-TePh DNA duplexes, respectively, with the averaged Tm (four times): 39.4° C. (native), 28.6° C. (2′-TeMe) and 23.4° C. (2′-TePh).

[2] = system: self-complementary duplex [5′-G(2′-TeX-dU)GTACAC-3′]2; assay: Thermo-denaturation (UV-melting, 260 nm) of self-complementary DNA duplex; assay type: physicochemical; conditions: for averaged Tm of the duplex: self-complementary 8-mer 5′-G(2′-TeX-dU)GTACAC-3′, two modifications per duplex, four times, 0.5° C./min; for Tm decrease per modification: self-complementary duplex [5′-G(2′-TeX-dU)GTACAC-3′]2, compared with native; for Tm decrease compared with the native duplex: self-complementary duplex [5′-G(2′-TeX-dU)GTACAC-3′]2, double Te-modification
Procedure: as §1

average Tm (melting temperature) of the duplex [1] | difference in melting temperature between native and modified DNA ([1]; non-self-complementary duplex 5′-C(2′-TeX-dU)TCTTGTCCG-3′ and 5′-CGGACAAGA-AG-3′) | averaged Tm of the duplex [2] | Tm decrease per modification [2] | Tm decrease compared with the native duplex [2] | Substance
40.7±0.1 °C and 40.7 °C | 3.3 °C | – | – | – | 5′-C(2′-TeX-dU)TCTTGTCCG-3′&3′-CGGACAAGAAG-5′ [2′-TeMe duplex]
36.8±0.2 °C and 36.8 °C | – | – | – | – | 5′-C(2′-TeX-dU)TCTTGTCCG-3′&3′-CGGACAAGAAG-5′ [2′-TePh duplex]
44.0±0.1 °C and 44.0 °C | – | – | – | – | 5′-C(2′-TeX-dU)TCTTGTCCG-3′&3′-CGGACAAGAAG-5′ [native duplex, reference compound]
– | – | 28.6 °C | 5.0 °C | 10 °C | [5′-G(2′-TeX-dU)GTACAC-3′, X=Ph or Me]2 [2′-TeMe DNA duplex]
– | – | 23.4 °C | 7.5 °C | 15 °C | [5′-G(2′-TeX-dU)GTACAC-3′, X=Ph or Me]2 [2′-TePh DNA duplex]
